Measurements from patent US5561131A, “Defaunation method” (Mallinckrodt Veterinary, Inc., priority 1991, dated 1996).

Key:
rumen bacteria [1] = experiment: In vitro bacterial gas inhibition; assay type: cell-based; conditions: at the concentration known to kill protozoa
Procedure: Compounds of Table 1 were also tested for toxicity bacteria. This involved removing protozoa from rumen liquor by centrifugation at 2,000 g for 5 minutes and collecting the bacterial rich supernatant. Nitrogen and energy substrate was added to the bacterial preparation which was then dispensed in triplicate 10 ml volumes over the same range of compound concentrations (50, 150, 250 and 500 ppm.) referred to in Example 2. Control tubes were placed after every second compound to enable the inhibition of gas resulting from the compound to be assessed. […] It can be seen that these compounds are selective in their mode of action, in that they are more toxic to protozoa than bacteria.

rumen ciliate protozoa [2] = experiment: Protozoal reduction in sheep; assay type: in vivo; set-up: concentration or dose not given beside the values; conditions: one week after dosing, relative to predosing numbers
Procedure: Defaunation compositions were prepared according to the method of Example 1.
Prior to dosing of the compound, a sample of rumen liquor (200 ml) was withdrawn to establish basal numbers of protozoa.
The sample was collected using a stomach tube, inserted into the rumen via a rumen cannula (fistulated animals) or per esophagus (intact animals). After straining the sample was well mixed using a magnetic stirrer and a 0.5 ml sample was withdrawn and added to 49.5 ml of a crystal violet stain. Protozoa were counted using a microscope and a Hawksley counting chamber.
One week after administering the compound, another rumen liquor sample was collected (as described above) and examined for the presence of protozoa. Where rumen ciliate protozoa were undetectable, a reduction or inhibition value of 100% was recorded. In general, most compounds expressed a strong inhibitory effect on protozoal populations.

rumen ciliate protozoa [3] = experiment: In vitro activity of defaunation compounds against rumen ciliate protozoa; assay type: cell-based; conditions: 39° C., anaerobic, 3 hours, tested at 50, 150, 250 and 500 ppm
Procedure: Compounds of Table 1 were tested for their toxicity against rumen ciliate protozoa by firstly isolating protozoa from rumen liquor collected from faunated animals. The rumen liquor was then centrifuged at 500 g for five minutes and the supernatant discarded. The protozoal-rich sediment was then reconstituted in McDougal's artificial saliva. Residual bacteria were suppressed by using a combination of two antibiotics at low concentration. Nitrogen and energy substrate was optimized for the protozoal preparation. At all times the protozoal preparation was maintained at 39° C. and kept anaerobic.
Sixty milligrams of each the compounds of Table 1 were dissolved in 1.2 ml of dimethyl sulphoxide and dispersed in triplicate to achieve a final concentration of 50, 150, 250 and 500 ppm. Ten milliliters of protozoal preparation was then added to each tube. After every second compound, control tubes were included which contained everything except for compound. The tubes, to which a 5 ml glass syringe was attached, were then incubated for 3 hours in a water bath at 39° C. The production of gas causes the syringe plunger to be displaced.
At the end of the incubation period, the volume of gas produced was recorded and the viability of the protozoa assessed visually using a microscope. The toxicity of the compounds to protozoa was assessed from both the reduction in gas produced relative to the control and by direct observation of the protozoa for movement of cilia.

mice = experiment: Mouse safety assessment; assay type: in vivo; conditions: oral gavage, 830, 415 and 217 mg/kg, observed for 2 days
Procedure: Compounds of Table 1 chosen for testing in sheep were first tested in mice for signs of toxicity. Because sheep are approximately 5 times more sensitive than mice to compounds dosed orally, the dose rates applied to mice were 5 times greater than the target dose rate of 500 ppm. in rumen liquor (83 mg/kg live weight) used for sheep. Each compound was screened at three different dose levels, high (830 mg/kg), medium (415 mg/kg) and low (217 mg/kg).
252 mg of compound was used for dilution into a high medium and low dose rate. 252 mg of compound was mixed with 3 ml of G1284 solution (4% w/v ethoxylated castor oil and 0.05% w/v simethicone), to form the high dose composition. The medium dose composition was formed by diluting 1.5 ml of the high dose with 1.5 ml of G1284 solution. The low dose composition was formed by diluting 1.5 ml of the medium dose with 1.5 ml of G1284 solution. Before the high dose could be diluted it was first manually ball milled in an effort to produce a fine suspension of the compound.
All mice were weighed before dosing to calculate the appropriate dose rate. The calculation for dose rate was: [formula]
Each mouse was dosed using the Gavage method. With this method the mouse is dosed orally by way of an angled hypodermic needle (18 g) with a smooth spherical end. It is gently placed down the esophagus. All care must be taken not to force the needle and injure the esophagus or dose into the lungs.
Observations were made at 10, 30, 60 and 120 minutes after dosing, then every 1 or 2 hours for the first 6 hours.
Mice were usually observed for 2 days.
Typically, few compounds fell within the poor classification. The majority of compounds tested were either in the fair or good classification.

[4] = Effect of defaunation compounds on feed intake of sheep; assay type: in vivo; conditions: after dosing vs pre-dosing intake
Procedure: Sheep were allowed a minimum of three weeks to adapt to their ration of 900 g of oaten chaff and 100 g of Lucerne chaff. The pre-dosing level of intake for each animal was established from the mean of five days intake immediately prior to dosing. Any effects of administering the compound on feed intake was then determined by measuring the level of feed intake after dosing.
The criteria of classifying the effect on food intake are shown below.
Poor--greater than 50% reduction in feed intake during the first week after dosing.
Fair--greater than 50% reduction in feed intake on the day following dosing but less then 50% reduction one week after dosing.
OK--transient drop in feed intake which is less than 50% on the day after dosing.
Good--No reduction in feed intake following dosing.

rumen bacteria [5] = experiment: Bacterial viability in sheep after administering defaunation compounds; assay type: in vivo; conditions: gas production one week after dosing vs pre-dosing
Procedure: In order to establish what effect the compounds had on the viability of rumen bacteria, a sample of rumen liquor was collected prior to dosing of the compound. The sample was withdrawn under vacuum using a pre-warmed tube inserted into the rumen through a rumen cannula. The sample was collected in a pre-warmed (39° C.) flask, gassed with carbon dioxide and covered. Two-pre-warmed 30 ml centrifuge tubes were then filled with well mixed rumen liquor and centrifuged at 2000 rpm for 5 minutes. Half the volume of each tube was then poured into another pre-warmed tube without disturbing the sediment. Three lots of 10 ml of this rumen liquor were then pipetted into 15 ml tubes which contained 10 μL of urea solution (40% w/v and 300 μL of glucose solution (50% w/v). The urea and glucose acted as substrate for the bacteria. The tubes were then gassed with carbon dioxide, stoppered and placed in a water bath at 39° C. After 10 minutes a 5 ml glass syringe was secured into the stoppers (through which a hypodermic needle had been inserted) and the gas collected for five hours and recorded.
This bacterial viability measure was then repeated one week after dosing with each of the compounds referred to in Table 1. Defaunation compositions were prepared according to the method of Example 1. The amount of gas produced was then compared with the pre-dosing level. The criterion for classifying post-dosing bacterial viability is shown below:
Poor--reduction in post-dosing gas production relative to pre-dosing levels.
OK--post-dosing gas production the same as pre-dosing levels.
Good--increase in post-dosing gas production relative to pre-dosing levels.

protozoa [6] = experiment: Wool growth trial: protozoal number; assay type: in vivo; conditions: sheep, defaunated period, 167 mg/kg
Procedure: (§1) Seven sheep each were defaunated using a dose rate of 167 mg/kg. Compounds were administered by first mixing with 20 ml of ethanol and then with 200 ml of centrifuged rumen liquor. This solution was then administered via a flexible stomach tube directly into the rumen. The sheep were fed with a ration of 90% oaten chaff and 10% Lucerne chaff at a rate of 1000 g per day. The sheep were maintained in a defaunated state by their isolation from faunated sheep to prevent the possibility of refaunation. The sheep were allowed to adjust for 3 weeks after administering the compound before any wool growth measurements were taken.
(§2) At the start of the wool growth measurement period, a 10 cm square area of wool was removed from both sides of the sheep. After four weeks the same area was reclipped and the wool retained for scouring at the end of the trial.
(§3) The sheep then had protozoa introduced back into their rumen and were allowed to adjust for three weeks. Similarly, during the second four week period, the wool was clipped from the same patch area. The wool harvested during the two four week trial periods was then scoured of wool wax and extraneous material and weighed.

protozoa [7] = experiment: Sheep test: protozoal numbers; assay type: in vivo
Procedure: (§4) In this trial the effect of defaunation by compounds 27, 30 and 37 (see Table 1) after 1 and 3 weeks were examined using penned sheep.
(§5) The compounds were each administered to two sheep as a single dose at 167 mg/kg body weight. Compositions containing each compound were prepared according to the method of Example 1. Sheep were penned and fed 1000 g/day of a chaffed oaten hay and Lucerne mixture (90/10). Protozoal and bacterial viabilities were monitored along with the feed intake of the sheep according to the methods taught in Examples 2, 3 and 7.

[8] = Wool growth in defaunated sheep; assay type: in vivo; conditions: sheep, 167 mg/kg
Procedure: as §1, §2, §3

Sheep test: feed intake = assay type: in vivo
Procedure: as §4, §5

rumen bacteria [9] = experiment: Sheep test: bacterial gas production; assay type: in vivo
Procedure: as §4, §5

SMILES	Bact. Gas Inhibition at the conc. required to kill protozoa (rumen bacteria [1])	Protozoal Reduction (rumen ciliate protozoa [2]) [%]	Conc Required to Kill all Protozoa (rumen ciliate protozoa [3]) [ppm]	Mouse Safety Assessment (mice)	Feed Intake [4]	Bacterial Viability (rumen bacteria [5])	Prot. Number (protozoa [6]) [per mL × 10^3]	Protozoal Nos. (protozoa [7]; 1 week after 167 mg/kg) [per mL × 10^3]	Protozoal Nos. (protozoa [7]; 3 weeks after 167 mg/kg) [per mL × 10^3]	Protozoal Nos. (protozoa [7]; pre-dose (baseline)) [per mL × 10^3]	Response To Defaun ([8]; clean wool growth defaunated vs refaunated)	Clean Wool Growth ([8]; defaunated period, 4 weeks, per midside patch) [g]	Feed Intake (Sheep test: feed intake; 1 week after 167 mg/kg) [g/day]	Feed Intake (Sheep test: feed intake; 3 weeks after 167 mg/kg) [g/day]	Feed Intake (Sheep test: feed intake; pre-dose (baseline)) [g/day]	Bacterial gas production (rumen bacteria [9]; 1 week after 167 mg/kg) [M1 per 5 hr]	Bacterial gas production (rumen bacteria [9]; 3 weeks after 167 mg/kg) [M1 per 5 hr]	Bacterial gas production (rumen bacteria [9]; pre-dose (baseline)) [M1 per 5 hr]
N#Cc1cccc(Nc2nc(Cl)nc(Cl)n2)c1 [Compound 19]	50	100	250	Fair (>2 mice sick)	Good	Poor	–	–	–	–	–	–	–	–	–	–	–	–
CC(C)(C)c1ccc(Nc2nc(Cl)nc(Cl)n2)cc1 [Compound 20]	55	100	150	Fair (>2 mice sick)	Good	Okay	–	–	–	–	–	–	–	–	–	–	–	–
CC(C)c1ccc(Nc2nc(Cl)nc(Cl)n2)cc1 [Compound 21]	55	100	150	Fair (>2 mice sick)	Good	Good	–	–	–	–	–	–	–	–	–	–	–	–
Clc1nc(Cl)nc(Nc2cccc(I)c2)n1 [Compound 22]	75	100	150	Fair (>2 mice sick)	Good	Okay	–	–	–	–	–	–	–	–	–	–	–	–
COc1cccc(Nc2nc(Cl)nc(Cl)n2)c1 [Compound 23]	50	79	150	Fair (>2 mice sick)	Good	Good	–	–	–	–	–	–	–	–	–	–	–	–
Clc1nc(Cl)nc(Nc2cc(Cl)c(Cl)c(Cl)c2)n1 [Compound 24]	67	100	150	Good	Good	Okay	–	–	–	–	–	–	–	–	–	–	–	–
CN(c1ccc(Cl)c(Cl)c1)c1nc(Cl)nc(Cl)n1 [Compound 29]	41	98	150	Fair (>2 mice sick)	Good	Good	–	–	–	–	–	–	–	–	–	–	–	–
Cc1ccc(Nc2nc(Cl)nc(Cl)n2)c(C)c1 [Compound 30, 2,4 dichloro-6-(2,4-dimethylanilino)-s-triazine]	33	100	150	–	Okay (transient drop, less than 50% at day 2)	Good	0	0	0	346	14.6	2.830	625	740	887	1.9	4.6	4.4
